In ChEMBL document CHEMBL3102853, “Carbonic anhydrase inhibitors. Synthesis, and molecular structure of novel series N-substituted N'-(2-arylmethylthio-4-chloro-5-methylbenzenesulfonyl)guanidines and their inhibition of human cytosolic isozymes I and II and the transmembrane tumor-associated isozymes IX and XII” (Eur J Med Chem, 2014):
The source made the active and inactive calls. The rule behind the calls is not given here.

Tests used:
Assay type in all cases: functional
[1] = tested on: SW-620; assay: Cytotoxicity against human SW620 cells at 10 uM; conditions: for inhibition of growth at 10 µM: read-out: GI
[2] = tested on: PC-3; assay: Cytotoxicity against human PC3 cells at 10 uM; conditions: read-out: GI
[3] = tested on: NCI-H460; assay: Cytotoxicity against human NCI-H460 cells at 10 uM; conditions: read-out: GI
[4] = tested on: A498; assay: Cytotoxicity against human A498 cells at 10 uM; conditions: read-out: GI
[5] = tested on: HT-29; assay: Cytotoxicity against human HT-29 cells at 10 uM; conditions: for inhibition of growth at 10 µM: read-out: GI
[6] = tested on: K562; assay: Cytotoxicity against human K562 cells at 10 uM; conditions: read-out: GI
[7] = tested on: KM12; assay: Cytotoxicity against human KM12 cells at 10 uM; conditions: read-out: GI
[8] = tested on: SNB-75; assay: Cytotoxicity against human SNB75 cells at 10 uM; conditions: read-out: GI
[9] = tested on: DU-145; assay: Cytotoxicity against human DU145 cells at 10 uM; conditions: for inhibition of growth at 10 µM: read-out: GI
[10] = tested on: SK-MEL-2; assay: Cytotoxicity against human SK-MEL-2 cells at 10 uM; conditions: read-out: GI
[11] = tested on: MCF7; assay: Cytotoxicity against human MCF7 cells at 10 uM; conditions: read-out: GI
[12] = tested on: LOX IMVI; assay: Cytotoxicity against human LOXIMVI cells at 10 uM; conditions: read-out: GI
[13] = tested on: NCI/ADR-RES; assay: Cytotoxicity against human NCI-ADR-RES cells at 10 uM
[14] = tested on: MDA-MB-468; assay: Cytotoxicity against human MDA-MB-468 cells at 10 uM; conditions: read-out: GI
[15] = tested on: RPMI-8226; assay: Cytotoxicity against human RPMI8226 cells at 10 uM; conditions: read-out: GI
[16] = tested on: UACC-62; assay: Cytotoxicity against human UACC62 cells at 10 uM; conditions: read-out: GI
[17] = tested on: MOLT-4; assay: Cytotoxicity against human MOLT4 cells at 10 uM; conditions: read-out: GI
[18] = tested on: HL-60(TB); assay: Cytotoxicity against human HL-60(TB) cells at 10 uM; conditions: read-out: GI
[19] = Cytotoxicity against human Hs 578T cells at 10 uM; conditions: read-out: GI
[20] = tested on: SF-268; assay: Cytotoxicity against human SF268 cells at 10 uM; conditions: read-out: GI
[21] = tested on: OVCAR-3; assay: Cytotoxicity against human OVCAR3 cells at 10 uM; conditions: for inhibition of growth at 10 µM: read-out: GI
[22] = tested on: T47D; assay: Cytotoxicity against human T47D cells at 10 uM; conditions: read-out: GI
[23] = tested on: A549; assay: Cytotoxicity against human A549 cells at 10 uM; conditions: read-out: GI
[24] = tested on: SR; assay: Cytotoxicity against human SR cells at 10 uM; conditions: read-out: GI
[25] = tested on: HOP-92; assay: Cytotoxicity against human HOP92 cells at 10 uM; conditions: read-out: GI

In the case of Cc1cc(S(=O)(=O)NC(=N)NCc2ccc(S(N)(=O)=O)cc2)c(SCc2cc3c(cc2Cl)OCO3)cc1Cl, the inhibition of growth at 10 µM [1] is reported as 8%, the inhibition of growth at 10 µM [2] is reported as 54% and the inhibition of growth at 10 µM [3] is reported as 20%. For the same molecule, the inhibition of growth at 10 µM [4] was 10%, the inhibition of growth at 10 µM [5] was 15% and the inhibition of growth at 10 µM [6] was 57%. It also gave an inhibition of growth at 10 µM [7] of 38%, an inhibition of growth at 10 µM [8] of 42% and an inhibition of growth at 10 µM [9] of 2%. It also gave an inhibition of growth at 10 µM [10] of 38%, an inhibition of growth at 10 µM [11] of 60% and an inhibition of growth at 10 µM [12] of 28%. The “growth inhibition (GI)” value [13] was “inactive”, the inhibition of growth at 10 µM [14] was 62% and the inhibition of growth at 10 µM [15] was 57%. For the same molecule, the inhibition of growth at 10 µM [16] was 56%, the inhibition of growth at 10 µM [17] was 50% and the inhibition of growth at 10 µM [18] was 58%. It also gave an inhibition of growth at 10 µM [19] of 29%, an inhibition of growth at 10 µM [20] of 28% and an inhibition of growth at 10 µM [21] of 41%. The inhibition of growth at 10 µM [22] was 48%, the inhibition of growth at 10 µM [23] was 30% and the inhibition of growth at 10 µM [24] was 50%. For the same molecule, the inhibition of growth at 10 µM [25] was 57%.

Molecule Cc1cc(S(=O)(=O)NC(=N)NCc2ccc(S(N)(=O)=O)cc2)c(SCc2ccccc2)cc1Cl has an inhibition of growth at 10 µM [1] of 4%, an inhibition of growth at 10 µM [2] of 36% and an inhibition of growth at 10 µM [3] of 10%. For the same molecule, the inhibition of growth at 10 µM [4] was 25%, the “growth inhibition (GI)” value [5] was “inactive” and the inhibition of growth at 10 µM [6] was 34%. For the same molecule, the inhibition of growth at 10 µM [7] was 16%, the inhibition of growth at 10 µM [8] was 43% and the “growth inhibition (GI)” value [9] was “inactive”. For the same molecule, the inhibition of growth at 10 µM [10] was 32%, the inhibition of growth at 10 µM [11] was 37% and the inhibition of growth at 10 µM [12] was 12%. The “growth inhibition (GI)” value [13] was “inactive”, the inhibition of growth at 10 µM [14] was 45% and the inhibition of growth at 10 µM [15] was 41%. The inhibition of growth at 10 µM [16] was 49%, the inhibition of growth at 10 µM [17] was 31% and the inhibition of growth at 10 µM [18] was 28%. The inhibition of growth at 10 µM [19] was 44%, the inhibition of growth at 10 µM [20] was 16% and the inhibition of growth at 10 µM [21] was 24%. It also gave an inhibition of growth at 10 µM [22] of 35%, an inhibition of growth at 10 µM [23] of 21% and an inhibition of growth at 10 µM [24] of 29%. The inhibition of growth at 10 µM [25] was 63%.

In the case of Cc1cc(S(=O)(=O)NC(=N)Nc2cccc(S(N)(=O)=O)c2)c(SCc2ccc(C(F)(F)F)cc2)cc1Cl, the inhibition of growth at 10 µM [1] is reported as 5%, the inhibition of growth at 10 µM [2] is reported as 68% and the inhibition of growth at 10 µM [3] is reported as 19%. The inhibition of growth at 10 µM [4] was 13%, the inhibition of growth at 10 µM [5] was 20% and the inhibition of growth at 10 µM [6] was 48%. The inhibition of growth at 10 µM [7] was 34%, the inhibition of growth at 10 µM [8] was 53% and the inhibition of growth at 10 µM [9] was 6%. For the same molecule, the inhibition of growth at 10 µM [10] was 27%, the inhibition of growth at 10 µM [11] was 51% and the inhibition of growth at 10 µM [12] was 20%. The “growth inhibition (GI)” value [13] was “inactive”, the inhibition of growth at 10 µM [14] was 26% and the inhibition of growth at 10 µM [15] was 39%. For the same molecule, the inhibition of growth at 10 µM [16] was 35%, the inhibition of growth at 10 µM [17] was 51% and the inhibition of growth at 10 µM [18] was 33%. For the same molecule, the inhibition of growth at 10 µM [19] was 13%, the inhibition of growth at 10 µM [20] was 19% and the inhibition of growth at 10 µM [21] was 33%. For the same molecule, the inhibition of growth at 10 µM [22] was 35%, the inhibition of growth at 10 µM [23] was 36% and the inhibition of growth at 10 µM [24] was 54%. It also gave an inhibition of growth at 10 µM [25] of 37%.

For Cc1cc(S(=O)(=O)NC(=N)Nc2cccc(S(N)(=O)=O)c2)c(SCc2ccccc2)cc1Cl, the “growth inhibition (GI)” value [1] was “inactive”, the inhibition of growth at 10 µM [2] was 45% and the inhibition of growth at 10 µM [3] was 3%. It also gave an inhibition of growth at 10 µM [4] of 16%, an inhibition of growth at 10 µM [5] of 8% and an inhibition of growth at 10 µM [6] of 22%. The inhibition of growth at 10 µM [7] was 5%, the inhibition of growth at 10 µM [8] was 35% and the “growth inhibition (GI)” value [9] was “inactive”. The inhibition of growth at 10 µM [10] was 14%, the inhibition of growth at 10 µM [11] was 21% and the inhibition of growth at 10 µM [12] was 15%. For the same molecule, the “growth inhibition (GI)” value [13] was “inactive”, the inhibition of growth at 10 µM [14] was 32% and the inhibition of growth at 10 µM [15] was 23%. It also gave an inhibition of growth at 10 µM [16] of 30%, an inhibition of growth at 10 µM [17] of 34% and an inhibition of growth at 10 µM [18] of 16%. For the same molecule, the inhibition of growth at 10 µM [19] was 17%, the inhibition of growth at 10 µM [20] was 12% and the “growth inhibition (GI)” value [21] was “inactive”. For the same molecule, the inhibition of growth at 10 µM [22] was 13%, the inhibition of growth at 10 µM [23] was 16% and the inhibition of growth at 10 µM [24] was 15%. For the same molecule, the inhibition of growth at 10 µM [25] was 46%.
